Source: patent US12577228B2, “Dihydrocyclopenta-isoquinoline-sulfonamide derivatives compounds” (UCB Biopharma SRL, priority 2019, dated 2026)

Biological target: T1, IgE-Tb / soluble IgE receptor FcεRIα with a Y131A mutation (Homo sapiens, UniProt P01854, N146Q/N252Q)
T1 construct: fused on or other part: Terbium chelate (LanthaScreen amine-reactive) on IgE-Fc; Alexa Fluor 488 hydrazide on the oxidised glycans of sFcεRIα; Both are labels and no part of the key
Assay: in vitro FRET assay: binding of IgE-Tb to receptor FcεRIα-Y131A-AF488 and its inhibition by compounds
Conditions: 5 nM IgE-Tb, 25 nM FcεRIα-Y131A-AF488, 2 hours at room temperature; read-out: FRET IC50 range

T1 sequence (P01854 104-427 N146Q/N252Q): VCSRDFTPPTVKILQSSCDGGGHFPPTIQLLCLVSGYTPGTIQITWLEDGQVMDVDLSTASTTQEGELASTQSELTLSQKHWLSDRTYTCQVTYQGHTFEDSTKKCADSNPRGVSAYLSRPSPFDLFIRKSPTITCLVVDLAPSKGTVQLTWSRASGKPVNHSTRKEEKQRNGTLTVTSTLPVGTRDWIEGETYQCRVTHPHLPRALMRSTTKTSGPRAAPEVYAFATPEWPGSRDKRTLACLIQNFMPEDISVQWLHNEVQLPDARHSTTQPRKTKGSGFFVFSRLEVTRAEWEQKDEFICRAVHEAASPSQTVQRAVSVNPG
T1 sequence (P12319 26-201 Y156A partner): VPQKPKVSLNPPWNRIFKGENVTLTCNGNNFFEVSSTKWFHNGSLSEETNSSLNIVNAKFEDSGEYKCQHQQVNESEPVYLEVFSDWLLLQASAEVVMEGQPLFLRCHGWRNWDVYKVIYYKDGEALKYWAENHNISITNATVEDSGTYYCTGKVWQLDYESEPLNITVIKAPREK

`Cc1ccc(S(=O)(=O)c2cncc(N[C@@H]3Cc4cc5cnc(C6CC6)cc5c(S(=O)(=O)NCC(C)(C)F)c4C3)c2)cn1` [Example 43, (7R)-3-cyclopropyl-N-(2-fluoro-2-methylpropyl)-7-[[5-(6-methylpyridin-3-yl)sulfonylpyridin-3-yl]amino]-7,8-dihydro-6H-cyclopenta[g]isoquinoline-5-sulfonamide] and `CC(C)(F)CNS(=O)(=O)c1c2c(cc3cnc(C4CC4)cc13)CC(Nc1cncc(S(C)(=O)=O)c1)C2` (stereo not shown) [Example 123, 3-cyclopropyl-N-(2-fluoro-2-methylpropyl)-7-[(5-methylsulfonylpyridin-3-yl)amino]-7,8-dihydro-6H-cyclopenta[g]isoquinoline-5-sulfonamide] fall in the same range of IC50: 10 to 50 nM for the first, 10 to 50 nM for the second.

`Cn1ncc2c(NC3Cc4cc5cnc(C6CC6)cc5c(S(=O)(=O)NCC(C)(C)F)c4C3)cncc21` (stereo not shown) [Example 84, 3-cyclopropyl-N-(2-fluoro-2-methylpropyl)-7-[(1-methylpyrazolo[3,4-c]pyridin-4-yl)amino]-7,8-dihydro-6H-cyclopenta[g]isoquinoline-5-sulfonamide] and `CC(C)(F)CNS(=O)(=O)c1c2c(cc3cnc(C4CC4)cc13)C[C@@H](Nc1cncc3nn(CCO)cc13)C2` [Example 106, (7R)-3-cyclopropyl-N-(2-fluoro-2-methylpropyl)-7-[[2-(2-hydroxyethyl)pyrazolo[3,4-c]pyridin-4-yl]amino]-7,8-dihydro-6H-cyclopenta[g]isoquinoline-5-sulfonamide] fall in the same range of IC50: 10 to 50 nM for the first, 10 to 50 nM for the second.

`Cn1nnc(-c2ccc(NC3Cc4cc5cnc(C6CC6)cc5c(S(=O)(=O)NCC5(F)COC5)c4C3)cn2)n1` (stereo not shown) [Example 13, 3-cyclopropyl-N-[(3-fluorooxetan-3-yl)methyl]-7-[[6-(2-methyltetrazol-5-yl)pyridin-3-yl]amino]-7,8-dihydro-6H-cyclopenta[g]isoquinoline-5-sulfonamide] and `CC(C)(F)CNS(=O)(=O)c1c2c(cc3cnc(C4CC4)cc13)C[C@@H](Nc1ccc(C3(O)COC3)nc1)C2` [Example 38, (7R)-3-cyclopropyl-N-(2-fluoro-2-methylpropyl)-7-[[6-(3-hydroxyoxetan-3-yl)pyridin-3-yl]amino]-7,8-dihydro-6H-cyclopenta[g]isoquinoline-5-sulfonamide] fall in the same range of IC50: 10 to 50 nM for the first, 10 to 50 nM for the second.

`CC(C)(F)CNS(=O)(=O)c1c2c(cc3cnc(C4CC4)cc13)CC(NC1=CC(=O)C1(C)C)C2` (stereo not shown) [Example 98, 3-cyclopropyl-7-[(4,4-dimethyl-3-oxocyclobuten-1-yl)amino]-N-(2-fluoro-2-methylpropyl)-7,8-dihydro-6H-cyclopenta[g]isoquinoline-5-sulfonamide] and `CC(C)(F)CNS(=O)(=O)c1c2c(cc3cnc(C4CC4)cc13)CC(NC1=CC(=O)OC1)C2` (stereo not shown) [Example 142, 3-cyclopropyl-N-(2-fluoro-2-methylpropyl)-7-[(5-oxo-2H-furan-3-yl)amino]-7,8-dihydro-6H-cyclopenta[g]isoquinoline-5-sulfonamide] fall in the same range of IC50: 100 to 2000 nM for the first, 100 to 2000 nM for the second.

First: Cn1nc(O)cc1NC1Cc2cc3cnc(C4CC4)cc3c(S(=O)(=O)NCC(C)(C)F)c2C1 (stereo not shown) [Example 112, 3-cyclopropyl-N-(2-fluoro-2-methylpropyl)-7-[(5-hydroxy-2-methylpyrazol-3-yl)amino]-7,8-dihydro-6H-cyclopenta[g]isoquinoline-5-sulfonamide]
Second: CC(C)(F)CNS(=O)(=O)c1c2c(cc3cnc(C4CC4)cc13)CC(Nc1cncc3nccn13)C2 (stereo not shown) [Example 109, 3-cyclopropyl-N-(2-fluoro-2-methylpropyl)-7-(imidazo[1,2-a]pyrazin-5-ylamino)-7,8-dihydro-6H-cyclopenta[g]isoquinoline-5-sulfonamide]
The IC50 of the first is higher: 100 to 2000 nM for the first, 10 to 50 nM for the second. The second is the more potent here.

Compared with `CC(C)(F)CNS(=O)(=O)c1c2c(cc3cnc(C4CC4)cc13)C[C@@H](NC1=CC(=O)COC1)C2` [Example 127, (7R)-3-cyclopropyl-N-(2-fluoro-2-methylpropyl)-7-[(5-oxo-2H-pyran-3-yl)amino]-7,8-dihydro-6H-cyclopenta[g]isoquinoline-5-sulfonamide], `CC(C)(F)CNS(=O)(=O)c1c2c(cc3cnc(C4CC4)cc13)CC(NC1=CC(=O)CCC1)C2` (stereo not shown) [Example 7, 3-cyclopropyl-N-(2-fluoro-2-methylpropyl)-7-[(3-oxocyclohexen-1-yl)amino]-7,8-dihydro-6H-cyclopenta[g]isoquinoline-5-sulfonamide] is lower in IC50: 100 to 2000 nM for the first, 50 to 100 nM for the second. The second is the more potent here.

`CC(C)(F)CNS(=O)(=O)c1c2c(cc3cnc(C4CC4)cc13)C[C@@H](Nc1ccc(Cl)nc1)C2` [Example 32, (7R)-7-[(6-chloropyridin-3-yl)amino]-3-cyclopropyl-N-(2-fluoro-2-methylpropyl)-7,8-dihydro-6H-cyclopenta[g]isoquinoline-5-sulfonamide] and `CC(C)(F)CNS(=O)(=O)c1c2c(cc3cnc(C4CC4)cc13)CC(Nc1ccc(S(C)(=N)=O)nc1)C2` (stereo not shown) [Example 35, 3-cyclopropyl-N-(2-fluoro-2-methylpropyl)-7-[[6-(methylsulfonimidoyl)pyridin-3-yl]amino]-7,8-dihydro-6H-cyclopenta[g]isoquinoline-5-sulfonamide] fall in the same range of IC50: 10 to 50 nM for the first, 10 to 50 nM for the second.

`Cc1nnc(-n2ccc(N[C@@H]3Cc4cc5cnc(C6CC6)cc5c(S(=O)(=O)NCC(C)(C)F)c4C3)cc2=O)o1` [Example 92, (7R)-3-cyclopropyl-N-(2-fluoro-2-methylpropyl)-7-[[1-(5-methyl-1,3,4-oxadiazol-2-yl)-2-oxopyridin-4-yl]amino]-7,8-dihydro-6H-cyclopenta[g]isoquinoline-5-sulfonamide] and `CC(C)(F)CNS(=O)(=O)c1c2c(cc3cnc(C4CC4)cc13)CC(Nc1nc3ccccc3[nH]1)C2` (stereo not shown) [Example 20, 7-(1H-benzimidazol-2-ylamino)-3-cyclopropyl-N-(2-fluoro-2-methylpropyl)-7,8-dihydro-6H-cyclopenta[g]isoquinoline-5-sulfonamide] fall in the same range of IC50: 10 to 50 nM for the first, 10 to 50 nM for the second.

`CC(C)(C)CNC(=O)C1Cc2cc3nnc(C4CC4)cc3c(S(=O)(=O)NCC(C)(C)F)c2C1` (stereo not shown) [Example 113, 3-cyclopropyl-N-(2,2-dimethylpropyl)-5-[(2-fluoro-2-methylpropyl)sulfamoyl]-7,8-dihydro-6H-cyclopenta[g]cinnoline-7-carboxamide] and `CC(C)(F)CNS(=O)(=O)c1c2c(cc3nnc(C4CC4)cc13)CC(NC(=O)OC(C)(C)C)C2` (stereo not shown) [Example 65, tert-butyl N-[3-cyclopropyl-5-[(2-fluoro-2-methylpropyl)sulfamoyl]-7,8-dihydro-6H-cyclopenta[g]cinnolin-7-yl]carbamate] fall in the same range of IC50: 100 to 2000 nM for the first, 100 to 2000 nM for the second.

First: CC(C)(F)CNS(=O)(=O)c1c2c(cc3cnc(C4CC4)cc13)C[C@@H](Nc1cnc(C3(O)COC3)nc1)C2 [Example 30, (7R)-3-cyclopropyl-N-(2-fluoro-2-methylpropyl)-7-[[2-(3-hydroxyoxetan-3-yl)pyrimidin-5-yl]amino]-7,8-dihydro-6H-cyclopenta[g]isoquinoline-5-sulfonamide]
Second: CC(=O)NS(=O)(=O)c1ccc(N[C@@H]2Cc3cc4cnc(C5CC5)cc4c(S(=O)(=O)NCC(C)(C)F)c3C2)cn1 [Example 95, N-[5-[[(7R)-3-cyclopropyl-5-[(2-fluoro-2-methylpropyl)sulfamoyl]-7,8-dihydro-6H-cyclopenta[g]isoquinolin-7-yl]amino]pyridin-2-yl]sulfonylacetamide]
The IC50 of the first is lower: 10 to 50 nM for the first, 50 to 100 nM for the second.

First: CC(C)(F)CNS(=O)(=O)c1c2c(cc3cnc(C4CC4)cc13)CC(NC(=O)Cc1ccccc1)C2 (stereo not shown) [Example 87, N-[3-cyclopropyl-5-[(2-fluoro-2-methylpropyl)sulfamoyl]-7,8-dihydro-6H-cyclopenta[g]isoquinolin-7-yl]-2-phenylacetamide]
Second: Cn1cc(C(=O)N[C@@H]2Cc3cc4cnc(C5CC5)cc4c(S(=O)(=O)NCC(C)(C)F)c3C2)c2ccccc21 [Example 132, N-[(7R)-3-cyclopropyl-5-[(2-fluoro-2-methylpropyl)sulfamoyl]-7,8-dihydro-6H-cyclopenta[g]isoquinolin-7-yl]-1-methylindole-3-carboxamide]
The IC50 of the first is higher: 50 to 100 nM for the first, 10 to 50 nM for the second. The second is the more potent here.

Compared with `CCNC(=O)NC1CCc2c1cc1cnc(C3CC3)cc1c2S(=O)(=O)NCC(C)C` (stereo not shown) [Example 45, 1-[3-cyclopropyl-5-(2-methylpropylsulfamoyl)-7,8-dihydro-6H-cyclopenta[g]isoquinolin-8-yl]-3-ethylurea], `CC(C)(F)CNS(=O)(=O)c1c2c(cc3cnc(C4CC4)cc13)CC(NC(=O)c1cccnc1)C2` (stereo not shown) [Example 6, N-[3-cyclopropyl-5-[(2-fluoro-2-methylpropyl)sulfamoyl]-7,8-dihydro-6H-cyclopenta[g]isoquinolin-7-yl]pyridine-3-carboxamide] is lower in IC50: 100 to 2000 nM for the first, 50 to 100 nM for the second. The second is the more potent here.

Work on `CC(C)(F)CNS(=O)(=O)c1c2c(cc3cnc(C4CC4)cc13)CN(c1cccnc1N)C2` [Example 51, 2-(2-aminopyridin-3-yl)-7-cyclopropyl-N-(2-fluoro-2-methylpropyl)-1,3-dihydropyrrolo[3,4-g]isoquinoline-9-sulfonamide] yielded an IC50 of 100 to 2000 nM.
